According to ChEMBL document CHEMBL1201862, “PubChem BioAssay data set” (2004):
Activity calls are given as the source filed them.

Key:
[1] = molecular target: Glucose-6-phosphate 1-dehydrogenase (Homo sapiens, UniProt P11413); test: inhibition of Homo sapiens G6PD, dose series – biochemical, fluorescence, selectivity assay for P. falciparum G6PD inhibitor project, dose response (AID 504792); type: functional
[2] = molecular target: T1, Coagulation factor XII (Homo sapiens, UniProt P00748); type: functional;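 also: activated factor XIIa alpha cleaving a fluorogenic AMC peptide substrate; inhibitor potency from loss of enzyme activity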
T1 sequence (P00748 whole entry): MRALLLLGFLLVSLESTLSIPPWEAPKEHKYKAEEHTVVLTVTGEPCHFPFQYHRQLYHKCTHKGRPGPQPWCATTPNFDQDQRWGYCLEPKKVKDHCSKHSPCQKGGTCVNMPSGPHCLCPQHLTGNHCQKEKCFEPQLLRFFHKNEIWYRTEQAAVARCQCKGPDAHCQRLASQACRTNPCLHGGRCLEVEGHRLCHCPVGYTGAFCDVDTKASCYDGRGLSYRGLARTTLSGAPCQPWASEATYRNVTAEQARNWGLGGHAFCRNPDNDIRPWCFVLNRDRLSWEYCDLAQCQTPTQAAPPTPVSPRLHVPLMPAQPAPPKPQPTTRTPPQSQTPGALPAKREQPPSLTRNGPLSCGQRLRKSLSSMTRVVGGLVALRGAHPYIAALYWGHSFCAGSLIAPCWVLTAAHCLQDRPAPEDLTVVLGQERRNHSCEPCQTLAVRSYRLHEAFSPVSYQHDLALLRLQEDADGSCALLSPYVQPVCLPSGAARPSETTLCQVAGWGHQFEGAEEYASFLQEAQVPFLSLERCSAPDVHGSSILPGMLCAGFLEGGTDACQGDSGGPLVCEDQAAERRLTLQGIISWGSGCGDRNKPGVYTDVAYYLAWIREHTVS

[3] = molecular target: T2, Type-1 angiotensin II receptor (Homo sapiens, UniProt P30556); test: antagonism of angiotensin II type 1 receptor – cell-based, uHTS hits, selectivity assay for APJ receptor antagonist project, dose response (AID 463214); type: functional;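 also: antagonist potency against angiotensin II stimulated AT1 response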
T2 sequence (P30556 whole entry): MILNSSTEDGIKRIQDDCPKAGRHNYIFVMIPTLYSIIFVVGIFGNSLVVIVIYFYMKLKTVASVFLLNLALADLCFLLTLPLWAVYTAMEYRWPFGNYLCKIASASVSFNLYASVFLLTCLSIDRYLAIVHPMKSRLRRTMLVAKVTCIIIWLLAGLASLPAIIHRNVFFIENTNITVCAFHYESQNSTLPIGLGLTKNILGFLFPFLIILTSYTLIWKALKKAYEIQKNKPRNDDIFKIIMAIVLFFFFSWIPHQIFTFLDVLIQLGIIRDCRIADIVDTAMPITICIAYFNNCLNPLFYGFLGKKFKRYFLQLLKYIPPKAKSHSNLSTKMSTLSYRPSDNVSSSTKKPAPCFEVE

[4] = molecular target: T3, Beta-galactosidase (Escherichia coli, UniProt Q8VNN2); test: PubChem AID 485352; type: functional
T3 sequence (Q8VNN2 whole entry): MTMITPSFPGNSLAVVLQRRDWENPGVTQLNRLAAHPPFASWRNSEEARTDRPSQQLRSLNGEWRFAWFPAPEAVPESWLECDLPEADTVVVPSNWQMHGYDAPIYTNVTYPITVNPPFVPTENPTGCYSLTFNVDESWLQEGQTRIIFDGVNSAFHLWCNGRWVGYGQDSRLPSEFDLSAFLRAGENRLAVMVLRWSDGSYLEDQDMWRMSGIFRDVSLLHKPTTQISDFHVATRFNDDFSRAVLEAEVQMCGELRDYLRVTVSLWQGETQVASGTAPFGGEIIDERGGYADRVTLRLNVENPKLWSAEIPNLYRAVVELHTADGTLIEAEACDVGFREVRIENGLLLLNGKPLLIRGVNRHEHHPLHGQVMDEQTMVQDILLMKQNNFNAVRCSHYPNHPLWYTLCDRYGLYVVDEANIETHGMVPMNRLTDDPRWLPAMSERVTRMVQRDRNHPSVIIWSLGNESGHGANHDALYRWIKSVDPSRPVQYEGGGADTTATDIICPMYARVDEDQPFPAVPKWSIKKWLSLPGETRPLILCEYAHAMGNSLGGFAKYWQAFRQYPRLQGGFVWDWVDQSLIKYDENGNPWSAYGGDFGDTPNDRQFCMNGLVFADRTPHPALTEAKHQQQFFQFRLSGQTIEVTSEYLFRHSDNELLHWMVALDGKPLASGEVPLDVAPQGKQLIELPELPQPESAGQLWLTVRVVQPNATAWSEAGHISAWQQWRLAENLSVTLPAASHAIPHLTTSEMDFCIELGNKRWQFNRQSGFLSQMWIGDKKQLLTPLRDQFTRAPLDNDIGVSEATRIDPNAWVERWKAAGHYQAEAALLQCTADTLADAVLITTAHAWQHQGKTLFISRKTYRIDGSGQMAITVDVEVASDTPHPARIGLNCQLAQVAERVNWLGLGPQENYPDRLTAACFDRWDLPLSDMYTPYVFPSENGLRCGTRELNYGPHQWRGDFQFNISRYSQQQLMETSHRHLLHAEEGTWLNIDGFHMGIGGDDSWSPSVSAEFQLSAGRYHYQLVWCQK

[5] = molecular target: Phospholipase A2 (Homo sapiens, UniProt P04054); type: functional;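 also: confirmatory dose-response counterscreen on phospholipase A2, testing hits that came from an ultra-high-throughput screen for ATG4B inhibitors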
Sequence of Phospholipase A2 (P04054 whole entry): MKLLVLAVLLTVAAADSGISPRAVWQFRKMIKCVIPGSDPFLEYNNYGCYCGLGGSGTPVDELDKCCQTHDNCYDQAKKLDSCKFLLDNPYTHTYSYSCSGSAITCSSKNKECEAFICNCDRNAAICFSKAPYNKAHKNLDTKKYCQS

[6] = molecular target: T4, Cysteine protease ATG4B (Homo sapiens, UniProt Q9Y4P1); type: functional;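 also: Fluorescence-based dose-response confirmation assay measuring inhibition of ATG4B activity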
T4 sequence (Q9Y4P1 whole entry): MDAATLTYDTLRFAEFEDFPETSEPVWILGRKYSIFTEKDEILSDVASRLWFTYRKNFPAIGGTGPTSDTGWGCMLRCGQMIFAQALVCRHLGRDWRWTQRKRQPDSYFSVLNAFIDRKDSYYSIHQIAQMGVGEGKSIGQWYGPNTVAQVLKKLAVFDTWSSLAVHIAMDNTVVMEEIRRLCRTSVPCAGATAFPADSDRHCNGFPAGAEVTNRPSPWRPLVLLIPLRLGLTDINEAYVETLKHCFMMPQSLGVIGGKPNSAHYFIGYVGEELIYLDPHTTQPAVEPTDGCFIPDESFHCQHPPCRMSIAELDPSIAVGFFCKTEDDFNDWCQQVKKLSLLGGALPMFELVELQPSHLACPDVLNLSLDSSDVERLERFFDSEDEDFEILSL

[7] = cells; type: functional, cell-based
[8] = cells; type: functional, cell-based; remark: listed apart in the source
[9] = loss of viability in HepG2 cells – cell-based, CellTiter-Glo, cherry-picked, cytotoxicity control for Shn3 inhibitor project, dose response (AID 624134); type: functional
[10] = non-specific 3'UTR reporter inhibition in Clone20-Shn3RL – cell-based, Renilla luciferase, cherry-picked, counter-screen for Shn3 inhibitor project, dose response (AID 624133); type: functional
[11] = reduction of Shn3 3'UTR-driven luciferase in osteoblasts – cell-based, Clone20 osteoblasts, firefly luciferase, cherry-picked, dose response (AID 624132); type: functional;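 also: firefly luciferase luminescence from reporter carrying the Shn3 3'UTR in osteoblasts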
[12] = molecular target: Protein Wnt-3a (Mus musculus, UniProt P27467); test: antagonism of Wnt3a pathway luciferase reporter – Wnt-LIGHT cells, luminescence, selectivity assay for Gli-SUFU antagonist project, dose response (AID 651570); type: functional; conditions: read-out: IC50_Mean;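 also: Wnt-LIGHT reporter cells stimulated with conditioned medium from Wnt3a-producing cells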
Sequence of Protein Wnt-3a (P27467 whole entry, the tested form may be a part): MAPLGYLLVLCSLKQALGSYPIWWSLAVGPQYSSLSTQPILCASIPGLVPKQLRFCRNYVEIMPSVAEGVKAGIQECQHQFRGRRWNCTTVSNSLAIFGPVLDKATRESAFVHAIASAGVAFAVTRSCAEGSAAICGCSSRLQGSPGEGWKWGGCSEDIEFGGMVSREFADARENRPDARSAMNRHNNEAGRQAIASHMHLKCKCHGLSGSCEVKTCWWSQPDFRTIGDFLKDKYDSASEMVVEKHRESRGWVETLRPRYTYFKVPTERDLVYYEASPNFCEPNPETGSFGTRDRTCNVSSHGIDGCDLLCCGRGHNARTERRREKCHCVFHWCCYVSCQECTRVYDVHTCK

[13] = HIV-1 AD8 envelope cell-cell fusion blockers – cherry-pick, dose response (AID 652062); type: functional, cell-based;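 also: luciferase signal from cell-cell fusion driven by HIV-1 clade B AD8 Env; potency is for inhibitors of fusion seen as a drop in luminescence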
[14] = test system: INS1; test: INS-1E survival protection against cytokine death – cell-based, luminescence, retest, dose response (AID 449756); type: functional; conditions: Rattus norvegicus;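 also: cell death triggered by IL-1 beta plus TNF-alpha plus IFN-gamma mixture; protective hits raise ATP signal compared with cytokine alone wells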
[15] = molecular target: Genome polyprotein (dengue virus type 2, UniProt P29990); test: flavivirus cap methylation enzyme inhibition – biochemical, confirmation dose response, primary screen (AID 588689); type: functional
Sequence of Genome polyprotein (P29990 2492-3391 limits assumed): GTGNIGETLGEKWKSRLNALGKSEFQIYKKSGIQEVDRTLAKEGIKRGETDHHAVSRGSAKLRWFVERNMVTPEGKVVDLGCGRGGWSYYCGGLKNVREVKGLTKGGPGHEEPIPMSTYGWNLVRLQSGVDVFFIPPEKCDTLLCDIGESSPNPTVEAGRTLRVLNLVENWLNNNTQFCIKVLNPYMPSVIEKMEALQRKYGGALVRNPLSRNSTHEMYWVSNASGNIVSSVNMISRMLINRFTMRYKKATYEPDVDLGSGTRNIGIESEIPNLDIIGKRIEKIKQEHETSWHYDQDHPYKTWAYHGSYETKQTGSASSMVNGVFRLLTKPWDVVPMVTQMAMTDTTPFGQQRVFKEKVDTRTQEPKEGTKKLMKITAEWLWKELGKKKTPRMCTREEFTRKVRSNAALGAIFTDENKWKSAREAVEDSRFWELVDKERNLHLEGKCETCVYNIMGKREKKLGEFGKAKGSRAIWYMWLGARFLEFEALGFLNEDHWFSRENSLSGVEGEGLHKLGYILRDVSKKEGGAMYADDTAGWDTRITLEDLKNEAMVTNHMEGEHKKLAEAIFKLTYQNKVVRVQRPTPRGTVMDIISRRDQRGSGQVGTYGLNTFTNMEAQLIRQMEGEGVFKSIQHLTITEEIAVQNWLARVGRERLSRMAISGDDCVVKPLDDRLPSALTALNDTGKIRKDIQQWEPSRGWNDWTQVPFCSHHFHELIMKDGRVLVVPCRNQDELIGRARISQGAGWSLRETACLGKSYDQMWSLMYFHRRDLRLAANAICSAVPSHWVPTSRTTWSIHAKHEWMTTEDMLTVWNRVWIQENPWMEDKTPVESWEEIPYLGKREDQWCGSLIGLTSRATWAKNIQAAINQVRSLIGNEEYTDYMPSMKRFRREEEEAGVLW

[16] = molecular target: G-protein coupled receptor 55 (Homo sapiens, UniProt Q9Y2T6); test: inhibition of LPI-stimulated GPR55 beta-arrestin translocation – imaging, U2OS, beta-arrestin-GFP, LPI agonist, primary screen (AID 2013); type: functional;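 also: antagonist potency measured as reduced agonist-driven arrestin aggregation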
Sequence of G-protein coupled receptor 55 (Q9Y2T6 whole entry): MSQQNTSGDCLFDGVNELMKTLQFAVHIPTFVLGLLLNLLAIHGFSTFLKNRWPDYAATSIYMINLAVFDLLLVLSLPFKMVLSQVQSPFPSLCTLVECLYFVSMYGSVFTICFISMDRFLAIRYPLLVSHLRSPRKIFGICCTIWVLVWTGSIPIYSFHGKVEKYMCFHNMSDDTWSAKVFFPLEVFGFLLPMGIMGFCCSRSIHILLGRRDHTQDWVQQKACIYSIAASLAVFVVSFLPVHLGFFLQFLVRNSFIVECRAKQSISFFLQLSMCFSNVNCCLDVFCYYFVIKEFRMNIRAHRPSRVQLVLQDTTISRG

[17] = molecular target: T5, Microphthalmia-associated transcription factor (Homo sapiens, UniProt O75030); test: reducers of TRPM1 reporter luminescence, concentration series – cell-based, SK-MEL-5, cherry-picked, set 3, MITF inhibitor project, dose response (AID 493073); type: functional;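 also: SK-MEL-5 melanoma cells with luciferase driven by the MITF target TRPM1 promoter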
T5 sequence (O75030 whole entry): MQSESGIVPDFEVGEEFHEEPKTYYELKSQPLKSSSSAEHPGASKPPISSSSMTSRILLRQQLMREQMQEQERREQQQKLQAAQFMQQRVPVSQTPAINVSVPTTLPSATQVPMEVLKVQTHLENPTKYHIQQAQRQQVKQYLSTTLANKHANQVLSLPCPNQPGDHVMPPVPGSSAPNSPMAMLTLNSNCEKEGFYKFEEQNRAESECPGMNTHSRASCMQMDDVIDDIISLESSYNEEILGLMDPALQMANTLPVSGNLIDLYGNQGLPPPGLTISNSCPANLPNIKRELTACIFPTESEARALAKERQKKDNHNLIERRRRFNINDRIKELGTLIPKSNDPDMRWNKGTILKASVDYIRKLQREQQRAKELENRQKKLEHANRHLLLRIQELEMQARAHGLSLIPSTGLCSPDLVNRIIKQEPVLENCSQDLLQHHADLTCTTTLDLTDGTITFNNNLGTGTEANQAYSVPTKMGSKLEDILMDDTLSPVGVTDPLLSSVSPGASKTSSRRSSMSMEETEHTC

[18] = viability of PTEN-deleted HCT116 cells – cell-based, HCT116 PTEN knockout, dose response (AID 1047); type: functional;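 also: HCT116 colon tumor cells with PTEN knocked out; cells exposed to compound for 60 hours before readout; potency for loss of cell viability measured by luminescence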
[19] = HEK-293T viability loss after treatment – luminescence, T-cell screen hits, cytotoxicity control for TCR NF-kB inhibitor project, dose response (AID 489026); type: functional, cell-based;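 also: cells exposed to compound about 14 hours before the viability readout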
[20] = NIH3T3 cell viability loss – ATP luminescence, mouse fibroblasts, counter-screen, dose response (AID 2010); type: functional, cell-based;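 also: cells exposed to compound for about 90 hours before reading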
[21] = molecular target: T3, Beta-galactosidase; test: detection-enzyme interference by beta-gal modulators – biochemical, E. coli enzyme, set 3, artefact control for CCR6 antagonist project, dose response (AID 504712); type: functional
[22] = Trypanosoma cruzi growth suppression in host cells – NIH3T3 host cells, beta-gal luminescence, confirmation (AID 2044); type: functional, cell-based;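 also: intracellular parasites grown in NIH/3T3 mouse fibroblasts as host cells; luminescent beta-galactosidase reporter signal from transgenic T. cruzi replicating inside host cells; inhibitors lower the luminescence signal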
[23] = molecular target: T6, Protein skinhead-1 (Caenorhabditis elegans, UniProt P34707); type: functional
T6 sequence (P34707 whole entry): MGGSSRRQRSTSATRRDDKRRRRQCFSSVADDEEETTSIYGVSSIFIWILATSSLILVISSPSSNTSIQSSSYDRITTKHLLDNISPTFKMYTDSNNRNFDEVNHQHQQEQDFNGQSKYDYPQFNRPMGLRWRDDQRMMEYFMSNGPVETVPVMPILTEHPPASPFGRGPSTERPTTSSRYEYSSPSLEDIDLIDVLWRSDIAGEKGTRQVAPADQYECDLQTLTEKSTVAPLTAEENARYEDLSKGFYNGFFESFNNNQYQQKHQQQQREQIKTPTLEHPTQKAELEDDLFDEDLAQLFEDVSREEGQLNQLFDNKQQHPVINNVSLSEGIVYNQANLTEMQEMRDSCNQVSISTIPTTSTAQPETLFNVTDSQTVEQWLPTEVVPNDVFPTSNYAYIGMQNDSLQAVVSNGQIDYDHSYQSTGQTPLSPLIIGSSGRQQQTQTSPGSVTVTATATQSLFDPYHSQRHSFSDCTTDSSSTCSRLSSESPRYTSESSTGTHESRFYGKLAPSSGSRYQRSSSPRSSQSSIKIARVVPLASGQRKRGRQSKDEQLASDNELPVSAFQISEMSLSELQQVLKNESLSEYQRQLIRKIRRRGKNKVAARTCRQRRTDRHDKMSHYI

[24] = viability of HCT116 lacking mutant beta-catenin – cell-based, human colon tumor, dose response (AID 1045); type: functional;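 also: HCT116 colon tumor cells with beta catenin knocked out; cells exposed to compound for 60 hours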
[25] = molecular target: Prothrombin (Homo sapiens, UniProt P00734); test: Thrombin 1536 HTS Dose Response Confirmation. [Related pubchem assays: 1046 (Thrombin 1536 HTS; hits were confirmed in this assay)]; type: functional
[26] = molecular target: NAD-dependent protein deacylase sirtuin-5, mitochondrial (Homo sapiens, UniProt Q9NXA8); test: sirtuin-5 deacylation blockers, concentration series – biochemical, fluorescence imaging, cherry-pick, set 5, dose response (AID 720591);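 also: desuccinylation of succinyl peptide AMC substrate read as fluorescence after trypsin release; potency of inhibitors that lower fluorescence and may act on trypsin instead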
Sequence of NAD-dependent protein deacylase sirtuin-5, mitochondrial (Q9NXA8 whole entry): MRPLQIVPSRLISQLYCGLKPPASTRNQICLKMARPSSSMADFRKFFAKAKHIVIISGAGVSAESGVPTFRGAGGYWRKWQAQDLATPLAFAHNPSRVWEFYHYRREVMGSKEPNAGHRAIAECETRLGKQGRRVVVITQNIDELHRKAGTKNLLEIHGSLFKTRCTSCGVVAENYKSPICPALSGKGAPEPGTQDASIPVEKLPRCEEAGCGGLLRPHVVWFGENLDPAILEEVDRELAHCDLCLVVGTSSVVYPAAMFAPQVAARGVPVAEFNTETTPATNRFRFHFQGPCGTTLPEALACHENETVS

Sequence of Glucose-6-phosphate 1-dehydrogenase (P11413 whole entry): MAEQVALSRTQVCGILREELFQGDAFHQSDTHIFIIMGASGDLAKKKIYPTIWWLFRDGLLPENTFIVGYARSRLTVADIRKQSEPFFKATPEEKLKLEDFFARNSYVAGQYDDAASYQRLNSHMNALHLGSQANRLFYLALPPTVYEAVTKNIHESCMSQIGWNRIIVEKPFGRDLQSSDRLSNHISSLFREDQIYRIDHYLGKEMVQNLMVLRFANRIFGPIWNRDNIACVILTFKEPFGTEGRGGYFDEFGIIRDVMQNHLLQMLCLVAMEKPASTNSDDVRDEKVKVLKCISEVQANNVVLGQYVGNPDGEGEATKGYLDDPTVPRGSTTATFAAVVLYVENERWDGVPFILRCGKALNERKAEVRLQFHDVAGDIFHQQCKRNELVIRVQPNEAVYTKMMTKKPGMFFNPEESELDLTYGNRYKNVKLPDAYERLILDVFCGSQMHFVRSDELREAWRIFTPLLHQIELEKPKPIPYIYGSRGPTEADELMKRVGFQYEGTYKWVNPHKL

SMILES: Cc1ccccc1-n1c(-c2ccc3ccccc3n2)n[nH]c1=S
- IC50 [1]: > 80 µM (inactive)

SMILES: CN(C)/C=C/c1c(C#N)c(=O)ncn1Cc1ccccc1
- IC50 [2]: > 50 µM (inactive)

SMILES: CC1=NN(C(N)=S)C(=O)C1N=Nc1ccc([N+](=O)[O-])cc1 (centres undefined)
- IC50 [3]: 35.3 µM (not active)
- EC50 [4]: > 40 µM (inactive)

SMILES: FC(F)(F)Oc1ccc(NC(S)=NCc2ccccc2)cc1
- IC50 [5]: 12.2 µM (active)
- IC50 [6]: 25.4 µM (inactive)

SMILES: Oc1nc(Nc2ccccc2)nc(N2CCCC2)n1
- EC50 [7]: > 29.9 µM (inactive)
- IC50 [8]: > 29.9 µM (inactive)

SMILES: O=C(c1cccc(S(=O)(=O)N2CCN(c3ccccc3)CC2)c1)N1CCCC(C(F)(F)F)C1 (centres undefined)
- AC50 [9]: 37.3 µM (active)
- AC50 [10]: 0.475 µM (active)
- AC50 [11]: 2.68 µM (active)
- IC50 [12]: 41.8 µM (inactive)
- AC50 [13]: 6.01 µM (active)

SMILES: O=C(O)c1ccc(/C=C2\SC(=S)N(Nc3ccccc3)C2=O)cc1
- IC50 [2]: > 50 µM (inactive)
- AC50 [14]: 3.85 µM (active)
- IC50 [15]: 58 µM (active)

SMILES: CN(C)c1ccnc(N(Cc2ccccc2)Cc2ccccc2)c1C#N
- IC50 [16]: 0.509 µM (active)

SMILES: COC(=O)c1ccc(/C=C(\C#N)C(=O)NC(C)c2ccccc2)cc1 (centres undefined)
- AC50 [17]: 10.7 µM (active)
- EC50 [18]: 47.1 µM (active)

SMILES: O=C(O)/C=C/C(=O)NCc1csc2ccccc12
- EC50 [7]: > 29.9 µM (inactive)
- IC50 [8]: > 29.9 µM (inactive)

SMILES: COc1cccc(CN(C)C(=O)c2cc(COc3ccc4ncccc4c3)on2)c1
- IC50 [19]: 59.9 µM (inactive)
- AC50 [9]: 3.93 µM (active)
- AC50 [14]: 5.13 µM (active)
- AC50 [10]: 2.1 µM (active)
- AC50 [11]: 1.49 µM (active)
- IC50 [12]: 1.02 µM (active)

SMILES: CC(C)C[C@H](NC(=O)c1[nH]cnc1C(=O)NCc1ccc(CNC(=O)OC(C)(C)C)cc1)C(=O)OCc1ccccc1
- IC50 [16]: 2.3 µM (active)

SMILES: O=[N+]([O-])c1ccc(/C=C/C2=NN(c3ccccc3)C(c3ccco3)C2)o1 (centres undefined)
- EC50 [20]: 18.5 µM (active)
- IC50 [21]: 41 µM (inactive)
- EC50 [22]: 0.427 µM (active)
- IC50 [23]: > 100 µM (inactive)

SMILES: COc1ccc(C(C)=O)cc1CSc1nc2ccccc2c(=O)n1-c1cccc(C)c1
- EC50 [24]: 29.1 µM (active)
- IC50 [5]: 0.321 µM (active)
- IC50 [6]: 0.502 µM (active)
- EC50 [18]: 28.9 µM (active)

SMILES: Cc1c(C(C)C)c(=O)n(-c2ccc(S(=O)(=O)NC3CCCCC3)cc2)n1C
- AC50 [9]: 3.93 µM (active)
- AC50 [10]: 1.76 µM (active)
- AC50 [11]: 1.06 µM (active)
- IC50 [12]: 2.91 µM (active)

SMILES: Cc1cc(C(=O)Nc2nc(C)c(C(=O)N(C)C)s2)ccc1[N+](=O)[O-]
- IC50 [2]: > 50 µM (inactive)
- IC50 [25]: > 50 µM (not active)

SMILES: Cc1c(-c2ccc(OCCN3CCOCC3)cc2)c(=O)oc2ccc3ccccc3c12
- AC50 [26]: > 30 µM (inactive)

SMILES: CC[n+]1c(C=C2C=CN(C)C=C2)ccc2cc(C)ccc21
- AC50 [17]: 1.74 µM (active)
